Experimental data taken from PMC6211316, “Synthesis and biological evaluation of 3-arylcoumarin derivatives as potential anti-diabetic agents” (Journal of Enzyme Inhibition and Medicinal Chemistry, 2018).
Where two headings read alike, the source gives them in different places.

How the values were obtained:
[1] = DPPH free radical scavenging; details: mean ± SD (n = 3)
Procedure: The effect of target compounds and vitamin C to scavenge the DPPH free radical was evaluated with the method described by Villano et al.[43] with slight modifications.
Two millilitres of different concentrations of the sample solution was added to 2.0 ml of DPPH solution (0.04 mg/mL), shaken and allowed to react at room temperature for 30 min. The absorbance value was measured at 517 nm with an ultraviolet-visible spectrophotometer. The blank reference cuvette contained absolute ethanol. All measurements were performed in triplicate. IC50 values were calculated. The percentage of DPPH radical scavenging rate of the target compound is calculated as follows: DPPH free radical scavenging effect (%)=[A0−(A1−A2)]/A0×100% where A0 is the absorbance of 2.0 ml DPPH solution +2.0 ml absolute ethanol; A1 is the absorbance of 2.0 ml DPPH solution +2.0 ml 3-arylcoumarins solution or standard; A2 is the absorbance of 2.0 ml 3-arylcoumarins solution or standard +2.0 ml absolute ethanol.

AGEs formation = assay: In vitro inhibitory activity of AGEs formation (bovine serum albumin/glucose); assay type: biochemical; details: mean ± SD (n = 3)
Procedure: To prepare the AGEs reaction solution, 10 mg/mL of bovine serum albumin in 50 mM PBS (pH 7.4) was added to 0.2 M glucose, and 0.02% sodium azide was added to prevent bacterial growth. The reaction mixture (3.0 ml) was then mixed with various concentrations (0.5–1000 μg/mL) of the target compounds (1.0 ml) dissolved in DMSO. After incubating at 37 °C for 14 d, the fluorescence intensity of AGE was determined by a fluorospectrophotometer (PE, USA) with excitation and emission wavelengths at 350 nm and 420 nm, respectively. All experiments were run in triplicate. Aminoguanidine hydrochloride was used as a reference compound. The inhibition rate of AGEs formation and the IC50 value of each sample were calculated according to the formula. Inhibition rate %={[(AC−AB)−(AS−ASB)]/(AC−AB)}×100% where AC is the absorbance of control group(1.0 ml glucose +1.0 ml bovine serum albumin +1.0 ml sodium azide +1.0 ml DMSO); AB is the absorbance of blank group(1.0 ml PBS +1.0 ml bovine serum albumin +1.0 ml sodium azide +1.0 ml DMSO); AS is the absorbance of sample group (1.0 ml glucose +1.0 ml bovine serum albumin +1.0 ml sodium azide +1.0 ml target compound solution or Aminoguanidine hydrochloride solution); ASB is the absorbance of sample blank group (1.0 ml PBS +1.0 ml bovine serum albumin +1.0 ml sodium azide +1.0 ml target compound solution or Aminoguanidine hydrochloride solution).

α-Glucosidase = target: T1, α-Glucosidase (Saccharomyces cerevisiae, UniProt P53341); assay: biochemical; assay type: biochemical; details: for α-glucosidase inhibitory activity (in words): in vitro
T1 construct: purchased Sigma Aldrich G0660-750UN
T1 sequence (P53341 whole entry): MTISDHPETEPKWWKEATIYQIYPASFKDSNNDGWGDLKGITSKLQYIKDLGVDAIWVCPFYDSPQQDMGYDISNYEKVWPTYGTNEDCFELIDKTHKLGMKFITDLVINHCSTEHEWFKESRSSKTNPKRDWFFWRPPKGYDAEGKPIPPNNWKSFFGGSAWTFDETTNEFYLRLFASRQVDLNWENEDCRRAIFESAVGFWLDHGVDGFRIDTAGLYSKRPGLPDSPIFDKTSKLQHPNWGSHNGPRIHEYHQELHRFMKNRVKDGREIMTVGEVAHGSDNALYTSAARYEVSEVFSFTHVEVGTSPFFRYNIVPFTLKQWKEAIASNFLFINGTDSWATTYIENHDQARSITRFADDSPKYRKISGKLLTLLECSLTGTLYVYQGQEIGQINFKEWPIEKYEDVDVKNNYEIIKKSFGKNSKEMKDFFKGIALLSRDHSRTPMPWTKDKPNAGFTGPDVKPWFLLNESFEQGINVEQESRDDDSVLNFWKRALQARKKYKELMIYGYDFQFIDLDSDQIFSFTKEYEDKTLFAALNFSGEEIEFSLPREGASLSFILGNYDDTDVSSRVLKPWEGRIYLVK
Procedure: α-Glucosidase (G0660-750UN, Sigma Aldrich) and 4-Nitrophenyl α-D-glucopyranoside (PNPG, Macklin) were dissolved in phosphate buffer (pH 6.8, 100 mM), and the test compounds were dissolved in DMSO solution. The experiment was divided into blank group, control group, sample blank group, and sample group. The reagents were loaded in 96-well plates at the dose of the table (Table 8). The solution was bathed in 37 °C water for 10 min, and then enzyme solution was added. After reaction at 37 °C for 20 min, 70 μL Na2CO3 solution ([…]) was added to stop the reaction. All experiments were run in triplicate. […] Since PNPG can produce glucose and p-Nitrophenol (PNP) under the action of α-glucosidase, PNP has the greatest absorption at 405 nm. The absorbance was determined by the microplate reader, and the inhibition rate of α-glucosidase and the IC50 value of each sample were calculated according to the formula. Inhibition rate %={[(AC−AB)−(AS−ASB)]/(AC−AB)}×100% where AC is the absorbance of control group; AB is the absorbance of blank group; AS is the absorbance of sample group; ASB is the absorbance of sample blank group.

[2] = hydroxyl radical scavenging; details: mean ± SD (n = 3), read-out: OH IC50 Value
Procedure: The ability of the target compounds and vitamin C to scavenge the hydroxyl radical was evaluated with method described by Ismaili et al.[29] with slight modifications. In test tube, 1.0 ml H2O2 solution (0.03%), 1.0 ml FeSO4 solution (2 mmol.L^−1), 1.0 ml salicylic acid solution (10 mmol.L^−1) and 1.0 ml of 3-arylcoumarins and standard water solution with different concentration (0.4–2.0 mg/mL) were mixed. Finally, 1.0 ml H2O2 solution (0.03%) was added to this mixture to start the reaction. Solutions were kept at 37 °C. After 30 min, the absorbance was measured at 510 nm against the reagent blank, where the distilled water was substituted for the H2O2 solution. The percentage of OH scavenging by target compounds and vitamin C was calculated the following equation: OH scavenging effect (%)=[A0−(A1−A2)]/A0×100% where A0 is the absorbance of 1.0 ml distilled water +1.0 ml H2O2 + 1.0 ml FeSO4 + 1.0 ml salicylic acid +1.0 ml H2O2; A1 is the absorbance of 1.0 ml 3-arylcoumarins or standard +1.0 ml H2O2 + 1.0 ml FeSO4 + 1.0 ml salicylic acid +1.0 ml H2O2; A2 is the absorbance of 1.0 ml 3-arylcoumarins or standard +1.0 ml H2O2 + 1.0 ml FeSO4 + 1.0 ml absolute absolute ethanol +1.0 ml H2O2.

| SMILES | melting point | IC50 [1] | IC50 (AGEs formation) | IC50 (α-Glucosidase) | IC50 [2] | α-glucosidase inhibitory activity (in words) (α-Glucosidase) | IC50 (α-Glucosidase; mean ± SD (n = 3), read-out: α-Glucosidase inhibitory activity IC50 Value) |
| --- | --- | --- | --- | --- | --- | --- | --- |
| O=c1oc2ccccc2cc1-c1ccc(F)cc1 [Compound 7, 3-(4-Fluorophenyl)-coumarin] | 196.7 to 197.7 °C | > 1000 µM | > 1000 µM | > 1000 µM | > 1000 µM |  |  |
| Cc1ccc(-c2cc3cccc(O)c3oc2=O)cc1 [Compound 8, 8-Hydroxy-3-(4-methylphenyl)-coumarin] | 211.7 to 212.5 °C | > 1000 µM | 31.9 ± 2.02 µM | 69.6 ± 5.32 µM | > 1000 µM |  |  |
| Cc1ccccc1-c1cc2cccc(O)c2oc1=O [Compound 10, 8-Hydroxy-3-(2-methylphenyl)-coumarin] | 212.7 to 213 °C | > 1000 µM | > 1000 µM | > 1000 µM | > 1000 µM |  |  |
| O=c1oc2cc(O)ccc2cc1-c1ccccc1O [Compound 16, 7-Hydroxy-3-(2-hydroxyphenyl)-coumarin] | 200.3 to 202.3 °C | > 1000 µM | 20.47 ± 0.2 µM | 10.2 ± 0.75 µM | > 1000 µM | moderate to excellent inhibitory activity |  |
| O=c1oc2c(O)cccc2cc1-c1ccc(F)cc1 [Compound 19, 8-Hydroxy-3-(4-fluorophenyl)-coumarin] | 201.3 to 203.1 °C | 39.1 ± 3.83 µM | 34.7 ± 1.84 µM | > 1000 µM | > 1000 µM |  |  |
| Cc1ccc(C)c(-c2cc3ccc(O)cc3oc2=O)c1 [Compound 20, 7-Hydroxy-3-(2,5-dimethylphenyl)-coumarin] | 189.1 to 190.6 °C | > 1000 µM | > 1000 µM | > 1000 µM | > 1000 µM |  |  |
| Cc1ccc(C)c(-c2cc3cccc(O)c3oc2=O)c1 [Compound 21, 8-Hydroxy-3-(2,5-dimethylphenyl)-coumarin] | 183.2 to 187.4 °C | > 1000 µM | 213 ± 4.77 µM | > 1000 µM | > 1000 µM |  |  |
| Cc1ccc(-c2cc3ccc(O)c(O)c3oc2=O)cc1 [Compound 23, 7,8-Dihydroxy-3-(4-methylphenyl)-coumarin] | 226.8 to 227.5 °C | 3.21 ± 0.04 µM | 75.9 ± 10.7 µM | 25.5 ± 0.52 µM | 801 ± 41.8 µM |  |  |
| COc1ccc2cc(-c3ccc(O)cc3)c(=O)oc2c1 [Compound 26, 7-Methoxy-3-(4-hydroxyphenyl)-coumarin] | 209 to 209.8 °C | 68.7 ± 13.4 µM | 65.9 ± 1.34 µM | > 1000 µM | > 1000 µM |  |  |
| COc1ccc2oc(=O)c(-c3ccc(O)cc3)cc2c1 [Compound 27, 6-Methoxy-3-(4-hydroxyphenyl)-coumarin] | 195.6 to 197.2 °C | 42 ± 0.97 µM | 64.5 ± 0.78 µM | 70.3 ± 2.95 µM | > 1000 µM |  |  |
| O=c1oc2cc(O)ccc2cc1-c1ccc(O)c(O)c1 [Compound 29, 7-Hydroxy-3-(3,4-dihydroxyphenyl)-coumarin] | 306 to 307.8 °C | 11.85 ± 0.04 µM | 7.48 ± 0.59 µM | 29.9 ± 5.15 µM | 982 ± 30 µM |  |  |
| O=c1oc2c(O)c(O)ccc2cc1-c1ccc(O)cc1 [Compound 30, 7,8-Dihydroxy-3-(4-hydroxyphenyl)-coumarin] | 287.5 to 288.9 °C | 2.18 ± 0.04 µM | > 1000 µM |  | 697 ± 19.6 µM |  | 19 ± 1.11 µM |
| O=c1oc2cc(O)cc(O)c2cc1-c1ccc(F)cc1 [Compound 31, 5,7-Dihydroxy-3-(4-fluorophenyl)-coumarin] | 267 to 267.6 °C | 595 ± 11.3 µM |  | 19.1 ± 0.26 µM | > 1000 µM |  |  |
| O=c1oc2c(O)c(O)ccc2cc1-c1ccc(F)cc1 [Compound 32, 7,8-Dihydroxy-3-(4-fluorophenyl)-coumarin] | 259.8 to 260.7 °C | 2.06 ± 0.07 µM | 33.5 ± 1.99 µM | > 1000 µM | 970 ± 70.9 µM |  |  |
| Cc1ccc(C)c(-c2cc3ccc(O)c(O)c3oc2=O)c1 [Compound 33, 7,8-Dihydroxy-3-(2,5-dimethylphenyl)-coumarin] | 190.3 to 190.5 °C | 2.98 ± 0.03 µM |  | > 1000 µM | 903 ± 41.9 µM |  |  |
| COc1ccc(-c2cc3ccc(O)c(O)c3oc2=O)cc1 [Compound 34, 7,8-Dihydroxy-3-(4-methoxyphenyl)-coumarin] | 234.4 to 235.4 °C | 3.66 ± 0.03 µM | > 1000 µM | 18.8 ± 1.02 µM | > 1000 µM |  |  |
| COc1ccc(-c2cc3cccc(O)c3oc2=O)cc1OC [Compound 38, 8-Hydroxy-3-(3,4-dimethoxyphenyl)-coumarin] | 162.8 to 163.8 °C | 16.3 ± 0.44 µM | 22.3 ± 1.34 µM | 20.2 ± 0.44 µM | > 1000 µM |  |  |
| COc1ccc(-c2cc3cc(O)ccc3oc2=O)cc1OC [Compound 39, 6-Hydroxy-3-(3,4-dimethoxyphenyl)-coumarin] | 216.1 to 217.9 °C | > 1000 µM | 8.02 ± 0.2 µM | 13.1 ± 0.57 µM | > 1000 µM | moderate to excellent inhibitory activity |  |
